Data on one sequence can be found in patent US9241891B2, “Personal care compositions comprising self-assembling peptides” (The Procter & Gamble Company, priority 2012, dated 2016).

Read-outs that look alike come from different tables or passages of the source.

The subject of the assay is CLAUDIN 1. To be noted: human keratinocytes. The procedure:
Cultures of human keratinocytes are treated with two concentrations of solutions, of the hexadecapeptide PuraMatrix™ (supplied by BD Science). The lower concentration, which is below the estimated critical aggregation concentration (CAC) at which the RADA-16I (SEQ ID NO:1) monomer self-assembles, while the higher concentration is above the CAC.

As to RADARADARADARADA [PuraMatrix ™], the “CLDN1 LEVEL” value reads like this: (High Concentration, above the CAC) 1.39; (Low Concentration, below the estimated critical aggregation concentration (CAC)) 1.09. Further, the “CLAUDIN 1 regulation (in words)” value (higher concentration, above the estimated critical aggregation concentration) is reported as “significantly upregulates”.
